In PubChem BioAssay AID493003 (Sanford-Burnham Center for Chemical Genomics, 2010):
The source made the active and inactive calls. How the calls were made is not given here.

System: S. cerevisiae tim10-1 mutant growth, luminescence
Assay: growth inhibitors of tim10-1 mutant yeast, dose response, luminescence, S. cerevisiae, uHTS hits (AID 493003);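 further: yeast growth measured after about 22 hours at 25 °C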

Structure (SMILES)	IC50
O=C(c1cc(COc2cccc(C(F)(F)F)c2)on1)N1C[C@@H]2CCC[C@H]1C2	27.3 µM
CC(C)(C)C(=O)NCCN1C(=O)S/C(=C\c2ccc([N+](=O)[O-])cc2)C1=O	32.3 µM
O=C(c1ccc2nc(N3CCCCC3)sc2c1)N1CCN(c2ccccn2)CC1	46.1 µM
Nc1ccccc1Sc1ccc(C(F)(F)F)cc1[N+](=O)[O-]	28.9 µM
COc1ccc(/C(C)=N/NC(=S)NCCc2ccccc2)cc1	5.69 µM
Cc1cccc(/C(N)=N/OC(=O)COc2ccc(Cl)cc2)c1	48.4 µM
Cc1ccc(-n2cc(-c3ccc([N+](=O)[O-])cc3)[nH]c2=S)c(C)c1	87.4 µM
CCOc1cc(/C=C/C(=O)c2ccc(C)cc2)ccc1OCC(=O)N(C)C	22 µM
O=C(CNS(=O)(=O)c1c(Cl)cccc1Cl)OCc1csc(-c2ccccc2)n1	41 µM
CCNC(=S)NNC(=O)c1cc(-c2cc(C)ccc2C)nc2ccccc12	24.3 µM
COc1ccc2nc(/N=C(\N)NC(=O)Nc3ccccc3)nc(C)c2c1	47.3 µM
COc1cccc(-c2nn3c(-c4ccccn4)nnc3s2)c1	33.4 µM
CC1(C)CC2CC(C)(CN2C(=S)NC(=O)c2ccccc2Cl)C1 (stereo not given)	59.9 µM
CCOC(=O)c1ccc(N2C(=O)CC(N3CCC(Nc4ccc(F)cc4)CC3)C2=O)cc1 (stereo not given)	55 µM
COc1ccc(-c2cc(-c3ccc(Cl)cc3)n[nH]2)c(O)c1	27.1 µM
S=C(NN=C1C2CC3CC(C2)CC1C3)Nc1ccccc1	19.4 µM
O=C(ON=C1CCN(S(=O)(=O)c2ccccc2)CC1)c1ccc(F)cc1	26.4 µM
Cc1ccc(S(=O)(=O)c2nc(S(C)(=O)=O)sc2N2CCCCC2C)cc1 (stereo not given)	7.08 µM
Nc1nc(-c2ccc(Br)cc2)cs1	16.9 µM
O=C(COc1ccc(Cl)cc1Cl)Nc1ccc(S(=O)(=O)NC2=NCCCCC2)cc1	24.5 µM
Cc1ccc(NC(=O)c2ccc(Cl)c(N3C(=O)C=CC3=O)c2)cc1	8.63 µM
C=CCc1ccc(O)c(-c2cc(CC=C)ccc2O)c1	68.3 µM
COc1ccc2sc(-c3ccc(S(C)(=O)=O)cc3)c(C#CCO)c2c1	24.2 µM

Structure (SMILES)	IC50
O=[N+]([O-])c1ccccc1/C=C/C=N/n1c(-c2ccccc2)n[nH]c1=S	73.4 µM
S=c1[nH]nc(CSc2nc3ccccc3s2)n1C1CCCCC1	> 100 µM (inactive)
Cc1csc(NC(=O)c2nc(-c3ccccc3)n(-c3ccccc3)n2)n1	31.7 µM
Cc1onc(-c2ccc3c(c2)OCO3)c1-c1ccc2[nH]ccc2c1	14.3 µM
Cc1cc(N)n2ncc(-c3ccc(F)cc3)c2n1	36 µM
CSc1ccc(-c2nc3cnccn3c2Nc2ccc3c(c2)OCO3)cc1	59.4 µM
COc1ccc2oc(=O)c(-c3csc(Nc4cccc(O)c4)n3)cc2c1	21.9 µM
Cc1nonc1C1CCCN1C(=O)c1cc(COc2cccc(C(F)(F)F)c2)on1 (stereo not given)	17.3 µM
COc1ccc(/C=N/n2c(=S)n(C)c3ccccc32)cc1OC	36.1 µM
N=C(N)c1ccc(/C=C/c2ccc(C(=N)N)cc2O)cc1	10.6 µM
CCn1c(CSc2nc3ccccc3s2)n[nH]c1=S	49.4 µM
O=S(=O)(Nc1ccc(N=Nc2ccccc2)cc1)c1ccccc1	35.5 µM
CCCCNC(=S)Nc1ccc(C(F)(F)F)cc1	18.3 µM
N/C(=N\S(=O)(=O)c1cc(C(F)(F)F)cc(C(F)(F)F)c1)c1ccc(Cl)cc1	49.7 µM
CN=C(Nc1cc(Cl)ccc1Cl)SC1CC(=O)N(c2ccc(C(=O)OC)cc2)C1=O (stereo not given)	12.6 µM
c1ccc(Nc2cccc(Nc3ccccc3)c2)cc1	11.2 µM
Cc1cccc(C(=O)O/N=C2\CCCc3ccccc32)c1	> 100 µM (inactive)
CCCC(=O)Nn1cnc2c(c1=O)C1(CCCC1)Cc1ccccc1-2	75.2 µM
CCCN1C(=O)/C(=N\OCC(=O)Nc2ccc(C(C)C)cc2)c2ccccc21	60.9 µM
Cc1ccnn2cc3c(=O)n(C)c(=O)n(C)c3c12	63.1 µM
Cc1cc(C)cc(N2C(=O)CC(Sc3nnnn3-c3ccccc3)C2=O)c1 (stereo not given)	13.6 µM
C=CC(C)(C)c1c(O)c(CC=C(C)C)c(O)c2c(=O)c3ccc(O)c(O)c3oc12	30.7 µM
O=C1CC(Sc2nnc(-c3ccccc3)o2)C(=O)N1c1ccccc1 (stereo not given)	28.3 µM

Structure (SMILES)	IC50
C[C@H]1C=CC(=O)O[C@H]1c1ccccc1	21 µM
CN1C(=O)C(O)(CC(=O)c2cccc(-n3cccc3)c2)c2ccccc21 (stereo not given)	40 µM
O=C(c1ccc2nc(N3CCOCC3)sc2c1)N1CCC(Cc2ccccc2)CC1	16.6 µM
O=C(c1cccs1)c1c[nH]cc1-c1ccccc1	> 100 µM (inactive)
CCCn1c(CC)nc([N+](=O)[O-])c1S(=O)(=O)c1ccccc1	13.1 µM
CC1=C/C(=N\OS(=O)(=O)c2ccccc2)C(C)=CC1=O	0.3 µM
COc1ccc2[nH]c3c(=O)n4c(nc3c2c1)SCC4	79.9 µM
CCCOc1ccc(CN(CCC#N)C(=S)NC(=O)c2ccccc2)cc1	10.9 µM
CC1CCN(c2ccccc2NC(=S)NC(=O)C(C)(C)C)CC1	75.8 µM
CNc1nc(-c2ccccn2)nnc1-c1ccccc1	29.8 µM
Cc1cc(/C=C\c2ccc3cc(N(C)C)ccc3[n+]2C)c(C)n1-c1ccccc1	9.45 µM
CC(=O)/C(=N\Nc1ccc(Cl)cc1Cl)Sc1cccc2cccnc12	41.3 µM
Cn1c2ccccc2c(=O)c2ccc(C#CC3(O)CCCCC3)cc21	24.5 µM
O=S(=O)(CCN(CCS(=O)(=O)C(F)(F)F)CC1CCCO1)C(F)(F)F (stereo not given)	7.82 µM
O=C(Nc1ccc(Cl)c(C(F)(F)F)c1)c1ccco1	28.7 µM
COc1ccc(CCNC(=O)NC23CC4CC(CC(C4)C2)C3)cc1	51 µM
CN1CCc2c(C#N)c(N3CCCCC3)nc(NCc3ccccc3)c2C1	16 µM
N/C(=N\OC(=O)CCCOc1ccc(Cl)cc1Cl)c1ccccn1	34 µM
COc1ccc(C(=O)C(CN2CCCC2)c2ccccc2)cc1 (stereo not given)	19 µM
NC(=S)N/N=C/c1ccccc1OCCSc1ccc(Cl)cc1	74.7 µM
COc1cc2c(cc1OC)CN(c1ccc([N+](=O)[O-])cc1Cl)CC2	27.6 µM
COCCNC(=S)N1CCN(c2nc(-c3ccccc3)cs2)CC1	> 100 µM (inactive)
CC(C)n1c(-c2ccco2)csc1=Nc1cccnc1	43 µM

Structure (SMILES)	IC50
CN(C)S(=O)(=O)c1cccc(NC(=O)COc2cccc3ccccc23)c1	> 100 µM (inactive)
CCOC(=O)/C=C/C(=O)OCC(=O)Nc1ccc([N+](=O)[O-])cc1	8.19 µM
COc1cccc(C(=O)CSc2nnnn2C2CCCCC2)c1	28.2 µM
OCCN1CCN(C2Cc3cc(Cl)ccc3Sc3ccc(Cl)cc32)CC1 (stereo not given) (tested in a mixture with another compound)	20.4 µM
C=CCn1c(N)c(C(=O)Nc2cccc(C)c2)c2nc3ccccc3nc21	17 µM
COc1ccc(C(=O)O/N=C(\N)Cc2ccc(Cl)c(Cl)c2)cc1OC	0.76 µM
N#Cc1sc2nc(C3CC3)cc(-c3ccc(Cl)cc3)c2c1N	> 100 µM (inactive)
COc1ccc2sc(N(CCCN(C)C)C(=O)c3ccc(S(=O)(=O)N4CCCc5ccccc54)cc3)nc2c1	16.4 µM
Cc1nn(Cc2c(F)c(F)c(F)c(F)c2F)c(C)c1NC(=O)c1ccc(COc2ccc(Cl)cc2Cl)o1	25.5 µM
Cc1ccc(CNC(=O)c2ccc(Cn3nc(C)c(Cl)c3C)o2)cc1	10.3 µM
COc1cccc(-c2csc(N3CCN(C(=S)Nc4ccccc4Cl)CC3)n2)c1	21.3 µM
OCCN1CCN(CCCN2c3ccccc3Sc3ccc(C(F)(F)F)cc32)CC1	31.3 µM
O=C1CC(Sc2cccs2)C(=O)N1c1ccccc1 (stereo not given)	30.7 µM
CCOC(=O)c1c(CSc2ccc(C)cc2)n(C)c2cc(Br)c(O)c(CN(C)C)c12	15.9 µM
O=C1c2cccc(Cl)c2C(=O)c2c1cccc2N1CCCC1	18.4 µM
COc1ccc(NC(C)(C)c2nnnn2-c2c(C)cccc2C)cc1	36.1 µM
Cc1ccccc1NC(=O)CSc1nc(N)c2c3c(sc2n1)CSC(C)(C)C3	36.6 µM
CCn1c(=S)sc2c(=O)n(-c3ccccc3)c(SC)nc21	68.4 µM
O=C(OCn1ncc(Br)c(Br)c1=O)c1ccccc1Cl	6.12 µM
COc1ccc(NCc2nnc(SCc3ccc(Cl)cc3)n2-c2ccccc2)cc1	17.4 µM
Cc1ccc(OCCOc2cccc(Br)c2)c([N+](=O)[O-])n1	69.2 µM
CC(C)(C)c1ccc(-c2cc(-c3ccccc3O)[nH]n2)cc1	38.9 µM
O=C(/C=C/c1ccccc1)CC(O)(c1ccccc1)C(F)(F)F (stereo not given)	24.2 µM

Structure (SMILES)	IC50
CCCCNC(=S)N=Nc1c(O)[nH]c2ccccc12	9.9 µM
CCNc1ccc(Br)cc(C(=O)/C=C/c2c(Cl)cccc2Cl)c1=O	22.1 µM
N/C(Cc1cccs1)=N\OC(=O)COc1ccc(Cl)cc1Cl	24.7 µM
O=C(Nc1ccccc1Br)C1CC(=O)N(c2ccc3c4c(cccc24)CC3)C1 (stereo not given)	77.7 µM
Nc1nc(Nc2ccccc2)nc2ccccc12	28.1 µM
Cc1cc(N(CCO)CCO)ccc1N=Nc1cc(F)ccc1F	26.1 µM
COc1ccc(Cl)cc1NC(=O)CN(C)C(=O)C12CC3CC(CC(Cl)(C3)C1)C2	9.65 µM
CCOC(=O)c1ccc(N2C(=O)CC(N3CCC(C(=O)OCC)CC3)C2=O)cc1 (stereo not given)	15.1 µM
COc1ccc(/C(N)=N/OC(=O)c2cccs2)cc1OC	42.8 µM
Nc1nc(N)c(C=Nc2ccc(Br)cc2)c(Nc2ccc(Br)cc2)n1	16.8 µM
Cc1cc(C)n2nc(SCc3c(F)cccc3Cl)nc2n1	> 100 µM (inactive)
Cc1ccc(/C(N)=N/OC(=O)C(C)c2ccc([N+](=O)[O-])cc2)cc1 (stereo not given)	9.99 µM
CC(C)(C)C(=O)Nc1nnc(SCc2ccc(F)cc2)s1	42.2 µM
COc1ccc(-c2cc(C3CC3)nc3sc(C#N)c(N)c23)cc1	12.7 µM
COc1ccc(C(=O)Nc2ccc(-n3nncc3C(C)(C)C)cc2)cc1	16.4 µM
CCOC(=O)c1sc(=S)n(Cc2ccccc2)c1N	50.4 µM
C=CCc1cccc(CNc2nc3ccccc3n2C(C)C)c1O	61.1 µM
CCN(CC)C1CC(=O)N(c2cccc(Cl)c2)C1=O (stereo not given)	9.25 µM
N/C(=N\OC(=O)CCCc1ccccc1)c1ccc([N+](=O)[O-])cc1	28.5 µM
CC(NC(=O)Nc1cccc([N+](=O)[O-])c1)(C(F)(F)F)C(F)(F)F	57.2 µM
COC(=O)C(C(C)=O)C1=C/C(=N\S(=O)(=O)c2ccc(C)cc2)c2ccccc2C1=O (stereo not given)	8.03 µM
CCOc1ccccc1NC(=O)/C=C/C(N)=O	14.4 µM
COc1ccc(C(=O)O/N=C(\N)c2ccc(Cl)cc2)cc1	13.3 µM
